Test results: US8759340B2, “Benzodiazepinone compounds useful in the treatment of skin conditions” (The Regents of the University of Michigan, priority 2007, dated 2014)

Assays:
[1] = test system: human keratinocytes (KC); test: Keratinocyte proliferation assay; type: cell-based; conditions: KC, day 2; for inhibition at 0.05 µM / inhibition at 0.1 µM / inhibition at 0.5 µM / inhibition at 1 µM / inhibition at 5 µM / inhibition at 10 µM: Homo sapiens, Keratinocyte, 48 h, read-out: Percent Inhibition of Cells Per Concentration of Test Compound
Method: Epidermal keratinocytes were isolated from fresh tissue biopsies as described previously (Varani et al., (1994) J. Clin. Invest. 94:1747-1753). Primary and early passage cells were maintained in Keratinocyte Growth Medium (KGM) (Lonza). KGM contains the same basal medium as KBM but is further supplemented with a mixture of growth factors including 0.1 ng per mL EGF, 0.5 μg per mL insulin, and 0.4% bovine pituitary extract. In addition to using low-passage keratinocytes, we also used the HaCat line of immortalized human epidermal keratinocytes in some experiments. The immortalized keratinocytes were handled exactly as low-passage keratinocytes.
(§1) Keratinocyte proliferation was assessed by seeding 4×10^4 cells per well in a 24-well plate using KGM as culture medium. After the cells had attached (overnight), they were washed and triplicate samples were harvested for zero-time counts. DMSO served as a negative control. Proliferation was measured on day 2 by releasing the cells with trypsin/EDTA and enumerating them using a particle counter (Coulter Electronics, Hialeah, Fla.). Fibroblast proliferation studies were conducted in a similar manner except that […] was used as culture medium.
(§2) KC refers to human keratinocytes. HFF refers to human foreskin fibroblasts. The cLogP values were calculated using ChemDraw™ (CambridgeSoft).

[2] = test system: human foreskin fibroblasts (HFF); test: Fibroblast proliferation assay; type: cell-based; conditions: HFF, day 2; for inhibition at 1 µM / inhibition at 0.05 µM / inhibition at 0.1 µM / inhibition at 0.5 µM / inhibition at 5 µM / inhibition at 10 µM: Homo sapiens, 48 h, read-out: Percent Inhibition of Cells Per Concentration of Test Compound; for inhibition at 0.05 µM / inhibition at 0.1 µM / inhibition at 0.5 µM / inhibition at 5 µM / inhibition at 10 µM: Fibroblast
Method: Fibroblasts obtained from the same tissue were grown in monolayer culture using Dulbecco's modified minimal essential medium supplemented with nonessential amino acids and 10% fetal bovine serum (DMEM-FBS) as culture medium. Both keratinocytes and fibroblasts were maintained at 37° C. in an atmosphere of 95% air and 5% CO2. Cells were subcultured by exposure to trypsin/ethylenediamine tetraacetic acid (EDTA) and used at passage 2-4.
as §1, §2

Row | Compound | inhibition at 0.05 µM ([1]; 0.05 μM) [%] | inhibition at 0.1 µM ([1]; 0.1 μM) [%] | inhibition at 0.5 µM ([1]; 0.5 μM) [%] | inhibition at 1 µM ([1]; 1 μM) [%] | inhibition at 5 µM ([1]; 5 μM) [%] | inhibition at 10 µM ([1]; 10 μM) [%] | inhibition at 1 µM ([2]; 1 μM) [%] | inhibition at 0.05 µM ([2]; 0.05 μM) [%] | inhibition at 0.1 µM ([2]; 0.1 μM) [%] | inhibition at 0.5 µM ([2]; 0.5 μM) [%] | inhibition at 5 µM ([2]; 5 μM) [%] | inhibition at 10 µM ([2]; 10 μM) [%] | also measured
1 | Cc1cc(C)cc(CC2N=C(c3ccc(O)cc3)c3cc(Cl)ccc3N(C)C2=O)c1 (stereo not drawn) [Compound 2, (Z)-3-(3,5-Dimethylbenzyl)-7-chloro-5-(4-hydroxyphenyl)-1-methyl-1H-benzo[e][1,4]diazepin-2(3H)-one] | < 20 | < 20 | ≥ 20 | ≥ 20 | ≥ 90 | ≥ 90 | < 20 | < 20 | < 20 | < 20 | ≥ 90 | ≥ 90 | 
2 | CCc1cccc(CC)c1CC1N=C(c2ccc(O)cc2)c2cc(Cl)ccc2NC1=O (stereo not drawn) [Compound 3, (Z)-3-(2,6-Diethylbenzyl)-7-chloro-5-(4-hydroxyphenyl)-1H-benzo[e][1,4]diazepin-2(3H)-one] | < 20 | < 20 | < 20 | ≥ 20 | ≥ 90 | ≥ 90 | < 20 | < 20 | < 20 | < 20 | ≥ 90 | ≥ 90 | 
3 | CCc1ccc(CC2N=C(c3ccc(O)cc3)c3cc(Cl)ccc3N(C)C2=O)cc1CC (stereo not drawn) [Compound 4, (Z)-3-(3,4-Diethylbenzyl)-7-chloro-5-(4-hydroxyphenyl)-1-methyl-11H-benzo[e][1,4]diazepin-2(3H)-one] |  |  |  |  |  |  |  |  |  |  |  |  | Percent Inhibition of Cells Per Concentration of Test Compound ([1]; 0.05 μM): <20%; Percent Inhibition of Cells Per Concentration of Test Compound ([1]; 0.1 μM): <20%; Percent Inhibition of Cells Per Concentration of Test Compound ([1]; 0.5 μM): <20%; Percent Inhibition of Cells Per Concentration of Test Compound ([1]; 1 μM): ≧20%; Percent Inhibition of Cells Per Concentration of Test Compound ([1]; 5 μM): ≧90%; Percent Inhibition of Cells Per Concentration of Test Compound ([1]; 10 μM): ≧90%; Percent Inhibition of Cells Per Concentration of Test Compound ([2]; 0.05 μM): <20%; Percent Inhibition of Cells Per Concentration of Test Compound ([2]; 0.1 μM): <20%; Percent Inhibition of Cells Per Concentration of Test Compound ([2]; 0.5 μM): <20%; Percent Inhibition of Cells Per Concentration of Test Compound ([2]; 1 μM): <20%; Percent Inhibition of Cells Per Concentration of Test Compound ([2]; 5 μM): ≧90%; Percent Inhibition of Cells Per Concentration of Test Compound ([2]; 10 μM): ≧90%
4 | CCc1cc(CC)cc(CC2N=C(c3ccc(O)cc3)c3cc(Cl)ccc3NC2=O)c1 (stereo not drawn) [Compound 5, (Z)-3-(3,5-Diethylbenzyl)-7-chloro-5-(4-hydroxyphenyl)-1H-benzo[e][1,4]diazepin-2(3H)-one] | < 20 | < 20 | ≥ 20 | ≥ 20 | ≥ 90 | ≥ 90 | < 20 | < 20 | < 20 | < 20 | ≥ 90 | ≥ 90 | 
5 | CCc1cc(CC)cc(CC2N=C(c3ccc(O)cc3)c3cc(Cl)ccc3N(C)C2=O)c1 (stereo not drawn) [Compound 6, (Z)-3-(3,5-Diethylbenzyl)-7-chloro-5-(4-hydroxyphenyl)-1-methyl-1H-benzo[e][1,4]diazepin-2(3H)-one] | < 20 | < 20 | < 20 | < 20 | ≥ 90 | ≥ 90 | < 20 | < 20 | < 20 | < 20 | ≥ 90 | ≥ 90 | 
6 | CC(C)c1ccc(CC2N=C(c3ccc(O)cc3)c3cc(Cl)ccc3NC2=O)cc1 (stereo not drawn) [Compound 7, (Z)-3-(4-Isopropylbenzyl)-7-chloro-5-(4-hydroxyphenyl)-1H-benzo[e][1,4]diazepin-2(3H)-one] | < 20 | < 20 | < 20 | ≥ 20 | ≥ 90 | ≥ 90 | ≥ 20 | < 20 | < 20 | < 20 | ≥ 90 | ≥ 90 | 
7 | CC(C)c1ccc(CC2N=C(c3ccc(O)cc3)c3cc(Cl)ccc3N(C)C2=O)cc1 (stereo not drawn) [Compound 8, (Z)-3-(4-Isopropylbenzyl)-7-chloro-5-(4-hydroxyphenyl)-1-methyl-1H-benzo[e][1,4]diazepin-2(3H)-one] | < 20 | < 20 | ≥ 20 | ≥ 20 | ≥ 90 | ≥ 90 | < 20 | < 20 | < 20 | < 20 | ≥ 90 | ≥ 90 | 
8 | CC(C)c1ccc(C(C)C)c(CC2N=C(c3ccc(O)cc3)c3cc(Cl)ccc3NC2=O)c1 (stereo not drawn) [Compound 9, (Z)-3-(2,5-Diisopropylbenzyl)-7-chloro-5-(4-hydroxyphenyl)-1H-benzo[e][1,4]diazepin-2(3H)-one] | < 20 | < 20 | ≥ 20 | ≥ 20 | ≥ 90 | ≥ 90 | < 20 | < 20 | < 20 | < 20 | ≥ 90 | ≥ 90 | 
9 | CC(C)c1ccc(C(C)C)c(CC2N=C(c3ccc(O)cc3)c3cc(Cl)ccc3N(C)C2=O)c1 (stereo not drawn) [Compound 10, (Z)-3-(2,5-Diisopropylbenzyl)-7-chloro-5-(4-hydroxyphenyl)-1-methyl-1H-benzo[e][1,4]diazepin-2(3H)-one] | < 20 | < 20 | < 20 | ≥ 20 | ≥ 90 | ≥ 90 | < 20 | < 20 | < 20 | < 20 | ≥ 90 | ≥ 90 | 
